Experimental data from ChEMBL document CHEMBL1201862, “PubChem BioAssay data set” (2004).
The source made the active and inactive calls. No stated cut-off is given here; in the data, actives have a measured IC50 and inactives only a lower limit.

Molecular target: Envelope glycoprotein gp160 (Human immunodeficiency virus 1, UniProt Q6QLK5)
Test: inhibitors of HIV fusion peptide binding, primary screen, biochemical, uHTS, fluorescence dequenching (AID 1986)

Chain of Envelope glycoprotein gp160 (Q6QLK5 whole entry, the tested form may be a part): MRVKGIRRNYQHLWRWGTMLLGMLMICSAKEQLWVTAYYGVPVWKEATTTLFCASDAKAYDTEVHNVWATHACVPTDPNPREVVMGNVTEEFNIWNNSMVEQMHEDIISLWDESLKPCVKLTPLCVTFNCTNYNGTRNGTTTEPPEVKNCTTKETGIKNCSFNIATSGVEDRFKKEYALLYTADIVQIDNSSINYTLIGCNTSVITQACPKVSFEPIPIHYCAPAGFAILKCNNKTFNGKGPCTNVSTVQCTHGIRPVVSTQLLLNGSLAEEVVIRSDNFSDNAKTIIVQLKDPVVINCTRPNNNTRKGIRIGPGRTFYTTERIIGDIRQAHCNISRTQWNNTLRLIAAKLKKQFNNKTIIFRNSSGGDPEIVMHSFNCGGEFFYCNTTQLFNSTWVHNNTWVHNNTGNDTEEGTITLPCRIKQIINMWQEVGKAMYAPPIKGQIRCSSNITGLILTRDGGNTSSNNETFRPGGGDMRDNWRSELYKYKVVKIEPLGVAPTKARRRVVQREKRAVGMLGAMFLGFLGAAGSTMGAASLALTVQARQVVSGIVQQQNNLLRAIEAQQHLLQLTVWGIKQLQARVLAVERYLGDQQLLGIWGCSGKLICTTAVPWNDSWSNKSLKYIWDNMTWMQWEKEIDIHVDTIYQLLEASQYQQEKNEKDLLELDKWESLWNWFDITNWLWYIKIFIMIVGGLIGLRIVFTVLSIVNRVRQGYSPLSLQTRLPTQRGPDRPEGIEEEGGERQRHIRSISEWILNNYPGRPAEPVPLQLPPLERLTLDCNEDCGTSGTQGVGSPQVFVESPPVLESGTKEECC

SMILES | IC50
Cc1ccc(/C=C2\SC(=S)N(CCCC(=O)Nc3ccccc3C(=O)O)C2=O)cc1 | 27.8 µM (active)
CS(=O)(=O)C1=NSC2=NC(=O)/C(=C\c3ccc(OC(=O)c4ccco4)c(Br)c3)C(=N)N21 | 16 µM (active)
